“Also recorded” adds a separate entry of the source.
B1: Noggin: recombinant Noggin, an inhibitor of Bmp signaling (protein, UniProt P97466 28-232, looked up)
Noggin: QHYLHIRPAPSDNLPLVDLIEHPDPIFDPKEKDLNETLLRSLLGGHYDPGFMATSPPEDRPGGGGGPAGGAEDLAELDQLLRQRPSGAMPSEIKGLEFSEGLAQGKKQRLSKKLRRKLQMWLWSQTFCPVLYAWNDLGSRFWPRYVKVGSCFSKRSCSVPEGMVCKPSKSVHLTVLRWRCQRRGGQRCGWIPIQYPIISECKCSC

Assays:
[1] = system: primary limb bud cells (PLBCs); test: Cell death by trypan blue staining in PLBCs; assay type: cell-based, chicken; settings: for effect on juglone-induced cell death in PLBCs: pre-treatment for one hour, juglone 5 μM two hours; for effect on BMP4-induced PCD in PLBCs: rh BMP4 300 ng/ml; for effect on thalidomide-induced cell death in PLBCs: thalidomide 10 μg/ml, six hours
Experimental: (§1) Primary limb bud cells (PLBCs) were isolated from 60 pooled wing and hindlimb buds of HH stages 23/24 embryos. Fibroblasts were gained from HH stage 34 chicken embryos or from 13.5 d.p.c. mouse embryos. Human embryonic fibroblasts were provided by Matthias Maass (2). Before adding reagents, all cell types were cultured for 16 hours in D-MEM (Gibco) plus 10% fetal calf serum (FCS) and 2% chicken serum. Treatment with thalidomide, phthalimide, recombinant human (rh) BMP4 (300 ng/ml; R&D Systems), juglone (5 μM; Sigma), recombinant mouse Noggin (30, 300, 1000 ng/ml in FIG. 4B; 300 ng/ml in FIGS. 4C and 6A), anti-human-DKK1 antibody (35, 350 and 1000 ng/ml in FIG. 4B; 350 ng/ml in FIGS. 4C and 6A), LiCl (3, 30, 60 mM in FIG. 4B; 30 mM in FIGS. 4C, 6A and 6C) and/or (2Z,3E)-6-Bromoindirubin-3-oxime (BIO, Gsk3-Inhibitor IX; 50, 500, 1000 nM in FIG. 4B; 500 nM in FIG. 6A; 50 and 500 nM in FIG. 6C; Calbiochem) were performed in Optimem1 (Invitrogen) plus 1% FCS. Unless otherwise noted, all treatments with thalidomide and rh-BMP4 and associated controls were done for six hours. Inhibitors were applied once at the beginning of incubation with the exception of LiCl that was added 150 minutes before harvesting the cells for further analyses. Pre-treatment with phenyl-N-t-butylnitrone (PBN; 2 mM; Sigma) was performed for one hour. Incubations with juglone were performed for two hours, if applicable, after a pre-treatment with PBN, Noggin, anti-Dkk1 antibody, LiCl or Gsk3-Inhibitor IX for one hour.
(§2) Cell death in PLBCs, CEFs, MEFs and HEFs was detected by staining with trypan blue (0.1% (w/v) in PBS; Sigma) for 90 seconds. Cells were counted in a counting chamber to determine the ratio of dead to live cells.

chicken embryos [2] = test: Inhibitors counteracting thalidomide-induced limb truncations and microphthalmia in chicken embryos; assay type: in vivo; settings: for embryos with limb truncations, thalidomide-treated plus inhibitor: Noggin 100 ng/embryo or LiCl 0.6 mg/embryo at HH stages 17-19
Experimental: (§3) Fertilized eggs were purchased from Deindl GmbH, Rietberg-Varensell. They were incubated at 38° C. in a humidified incubator, windowed after one day and staged according to Hamburger and Hamilton (HH stage). Racemic thalidomide (Celgene), thalidomide enantiomers or phthalimide (Sigma) were dissolved in DMSO at 5 mg/ml and further diluted in PBS. Embryos were exposed to drugs by dropping 15 μg-3 mg thalidomide or phthalimide per kg egg weight (about 1-200 μg per embryo) in 50 μl DMSO/PBS as a single dose at HH stages 0-13 onto the embryo. Thalidomide (50 μg) or phthalimide (50 μg) in 10 μl DMSO was injected into the extra-embryonic blood vessels of HH 19 stage embryos. LiCl (99% pure, Sigma) was dissolved in sterile PBS. LiCl (0.1, 0.6 or 3.2 mg) was applied at HH stages 17-19 by dropping 500 μl of a 5 mM, 28 mM or 151 mM LiCl solution onto the embryo. Recombinant Noggin, Dkk1 specific goat IgG (R&D Systems) or serum of non-immunized goats (Sigma) was dissolved in 0.1% BSA/0.01% Fast Green/PBS. Noggin (10 or 100 ng), Dkk1 specific goat IgG (5 or 50 ng) or serum of non-immunized goats (50 ng) was applied to a single embryo at HH stages 17-19 by injecting a 10 μl solution through the extra-embryonic membranes.
(§4) The morphology of the limbs was studied in specimens fixed in 5% trichloroacetic acid and stained for cartilage with alcian green as described (3).

[3] = system: limb buds of HH stages 23/24 chicken embryos; test: Whole mount TUNEL staining of limb buds; assay type: in vivo; settings: LiCl 0.6 mg per embryo at HH stages 17-19, 19 of 80
Experimental: TUNEL staining was performed as described (7).

[4] = system: primary chicken embryonic fibroblasts (CEFs); test: Cell death by trypan blue staining in CEFs; assay type: cell-based; settings: data not shown
Experimental: as §1, §2

[5] = system: human embryonic fibroblasts (HEFs); test: Cell death by trypan blue staining in HEFs; assay type: cell-based; settings: for effect on thalidomide-induced cell death in HEFs: Noggin 300 ng/ml, anti-DKK1 antibody 350 ng/ml, LiCl 30 mM
Experimental: as §1, §2

[6] = system: Bmp4 and Dkk1 expression in PLBCs; test: sqRT-PCR of Bmp4 and Dkk1 expression in PLBCs; assay type: cell-based, chicken
Experimental: as §1
(§5) RNA isolation, semi-quantitative RT-PCRs and whole mount in situ hybridizations were performed according to standard protocols that are well known within the art. RNA was isolated using TRIZOL (Gibco BRL) followed by DNAseI digestion. First strand synthesis was carried out with the Expand RT System (Roche) according to the manufacturer's instructions. PCR amplification was carried out primers and conditions within the knowledge of a person having skill in the relevant art. Quantifications were performed using NIH Image 1.62.

[7] = system: Bmp4 and Dkk1 expression in HEFs; test: sqRT-PCR of Bmp4 and Dkk1 expression in HEFs; assay type: cell-based, human
Experimental: as §1, §5

[8] = system: Dkk1 and Bmp expression in limb buds; test: sqRT-PCR and whole mount in situ hybridization of Dkk1 and Bmp expression in limb buds; assay type: in vivo, chicken; settings: data not shown
Experimental: as §5

chicken embryos [9] = test: Thalidomide-induced limb truncations and microphthalmia in chicken embryos; assay type: in vivo; settings: applied to chicken embryos, control reagent
Experimental: as §3, with “LiCl (99% pure, Sigma) was dissolved in sterile PBS. LiCl (0.1, 0.6 or 3.2 mg) was applied at HH stages 17-19 by dropping 500 μl of a 5 mM, 28 mM or 151 mM LiCl solution onto the embryo.” left out
as §4

Wnt/β-catenin signaling = test: TOPflash luciferase reporter assay in CEFs; assay type: cell-based, chicken; settings: Wnt3a-conditioned medium, 24 hours
Experimental: Plasmids with wild type (TOPflash) or mutated (FOPflash) LEF/TCF binding sites (5) upstream of a luciferase reporter gene were transiently transfected into CEFs using Lipofectamine (Invitrogen). Following transfection for 24 hours, the cells were exposed to Wnt3a-conditioned medium or to control medium (6) with or without thalidomide or recombinant human DKK1 (150 ng/ml, R&D Biosystems) for 24 hours prior to luciferase assay. Values were normalized for transfection efficiency by co-transfection with a pSV-β-galactosidase vector and for the number of living cells. Luciferase activity was measured using the Dual-Light System (Applied Biosystems).

Row | Molecule | effect on juglone-induced cell death in PLBCs [1] | effect on BMP4-induced PCD in PLBCs [1] | effect on thalidomide-induced cell death in PLBCs [1] | embryos with limb truncations, thalidomide-treated plus inhibitor (chicken embryos [2]) | effect on thalidomide-induced cell death in CEFs [4] | effect on thalidomide-induced cell death in HEFs [5] | other results
1 | O=C1Nc2cc(Br)ccc2/C1=C1/Nc2ccccc2/C1=N\O [Gsk3-Inhibitor IX, (2Z,3E)-6-Bromoindirubin-3-oxime] | could be inhibited | counteracted BMP4-induced PCD in a dose-dependent manner | completely abrogate |  |  |  | 
2 | [Cl-].[Li+] [LiCl] | could be inhibited | counteracted BMP4-induced PCD in a dose-dependent manner | completely abrogate | 5% | block thalidomide-induced cell death | block thalidomide-induced cell death | rescue of thalidomide-induced microphthalmia (chicken embryos [2]; 0.6 mg LiCl): did not rescue; embryos with thalidomide-induced microphthalmia plus LiCl (chicken embryos [2]; 3.2 mg LiCl per embryo): 9%; individual limb buds with enhanced PCD (TUNEL) in thalidomide-treated embryos given inhibitor [3]: 24%
3 | CC(C)(C)[N+]([O-])=Cc1ccccc1 [PBN, phenyl-N-t-butylnitrone] | completely reduces; also recorded: could be inhibited | no significant effect; also recorded: did not influence | completely reduces; also recorded: completely inhibited |  |  |  | effect on up-regulation of Bmp4 and Dkk1 expression in thalidomide-treated PLBCs ([6]; pre-treatment with PBN, data not shown): abolishes the up-regulation; effect on up-regulation of Bmp4 and Dkk1 expression in thalidomide-treated HEFs ([7]; pre-treatment with PBN): abolishes the up-regulation
4 | O=C1NC(=O)c2ccccc21 [phthalimide] |  |  |  |  |  |  | Bmp and Dkk1 expression in limb buds [8]: not altered; limb or eye defects (chicken embryos [9]): did not cause limb or eye defects; induction of PCD in PLBCs [1]: did not induce PCD; expression of Bmp4 and Dkk1 in PLBCs ([6]; 10 μg/ml, six hours): did not influence the expression; potential to induce PCD in HEFs [5]: did not induce PCD; expression of Bmp4 and Dkk1 in HEFs ([7]; 10 μg/ml, six hours): did not influence the expression
5 | recombinant DKK1: recombinant human DKK1, positive control in the TOPflash assay |  |  |  |  |  |  | effect on Wnt3a-induced TOPflash activity (Wnt/β-catenin signaling): clearly counteracted
6 | B1 | could be inhibited |  | only a partial neutralization; also recorded: clearly reduced | 5% | block thalidomide-induced cell death | block thalidomide-induced cell death | 
